Reference: patent publication US20240373851A1, “PEST CONTROL COMPOSITION AND PEST CONTROL METHOD” (SUMITOMO CHEMICAL COMPANY, LIMITED, priority 2021, published 2024)

How the values were obtained:
Type in all cases: in vivo
[1] = tested on: German cockroaches (Blattella germanica); experiment: Test Example 5: control test against German cockroaches, spray in chamber; conditions: adult German cockroaches; 1.5 mL sprayed; concentration [%]: nicofluprole 0.01, imiprothrin 0.01, cyfluthrin 0.0002, alone or mixed; 45 minutes after spraying
Text: (§1) Next, the usefulness of the inventive composition for controlling pests will be indicated by Test Examples.
(§2) (hereinafter referred to as expected value A)
(§3) (hereinafter referred to as expected value B)
(§4) In a plastic cup (diameter: 12.4 cm, height: 10.2 cm) lined with a filter paper, ten adult German cockroaches (Blattella germanica) (five males and five females each) or eleven adult German cockroaches were released, and the plastic cup was placed in the center of the bottom of a box-shaped chamber (46 cm×46 cm×70 cm in height). From the height of 60 cm, 1.5 mL of each of formulations prepared by dissolving a single agent of any one of nicofluprole, imiprothrin and cyfluthrin, or a mixed agent of two or more thereof in a mixture of isopropyl alcohol and Isopar M at a mixing ratio of 1:9 was sprayed under a spray pressure of 0.041 MPa. After a lapse of 45 minutes from spraying, the number of dead and moribund individuals was examined, and moribund and mortal rates (%) were determined by the above equation 3. The test was performed through two replicates. Dead individuals are completely immobile individuals, and moribund individuals are individuals who cannot get up when turned on their backs.

[2] = tested on: German cockroaches (Blattella germanica); experiment: Test Example 3: control test against German cockroaches, spray in chamber; conditions: adult German cockroaches; 1.5 mL sprayed; concentration [%]: broflanilide 0.02, imiprothrin 0.01, cyfluthrin 0.0016, alone or mixed; 420 minutes after spraying
Text: as §1, §2, §3
as §4, with “each)” for “each) or eleven adult German cockroaches”, “broflanilide,” for “nicofluprole,”, “420” for “45”

[3] = tested on: German cockroaches (Blattella germanica); experiment: Test Example 9: control test against German cockroaches, spray in chamber; conditions: adult German cockroaches; 1.5 mL sprayed; concentration [%]: broflanilide 0.02, imiprothrin 0.01, permethrin 0.05, alone or mixed; 420 minutes after spraying
Text: as §1, §2, §3
as §4, with “each)” for “each) or eleven adult German cockroaches”, “broflanilide,” for “nicofluprole,”, “permethrin,” for “cyfluthrin,”, “420” for “45”

Question: What does the source list for `C#CCN1CC(=O)N(COC(=O)[C@@H]2C(C=C(C)C)C2(C)C)C1=O` (mixture of isomers) [Imiprothrin, imiprothrin]?
Answer: Moribund and mortal rates [%] after 45 minutes [1]: 65%; Moribund and mortal rates [%] after 420 minutes [2]: 15%; Moribund and mortal rates [%] after 420 minutes [3]: 15%
